# Test results reported in patent publication US12612420B2, “Arginase inhibitors and methods of use thereof” (Molecure S.A., priority 2020, dated 2026).
# Where a name gives a salt, the structure may show the parent alone.
# Experiments:
# [1] = target: T1, recombinant human arginase 1 (hARG1) (Homo sapiens, UniProt P05089); test: Human arginase inhibition assay (colorimetric urea detection), arginase 1; format: biochemical; conditions: IC50 class; hydrochloride salts; 1 h at 37° C., pH 7.4, 10 mM L-arginine, 200 μM MnCl2; read-out: Activity Class (ARG I)
# T1 construct: made in house; host or cells: E. coli
# T1 sequence (P05089 1-322): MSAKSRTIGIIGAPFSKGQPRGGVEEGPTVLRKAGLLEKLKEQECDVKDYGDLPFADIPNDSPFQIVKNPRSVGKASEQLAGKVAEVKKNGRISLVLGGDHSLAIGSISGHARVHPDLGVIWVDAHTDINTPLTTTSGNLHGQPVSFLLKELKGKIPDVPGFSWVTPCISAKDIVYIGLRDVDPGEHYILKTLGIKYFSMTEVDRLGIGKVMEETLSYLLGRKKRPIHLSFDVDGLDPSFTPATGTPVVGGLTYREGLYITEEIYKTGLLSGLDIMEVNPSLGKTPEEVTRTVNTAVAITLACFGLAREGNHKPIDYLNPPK
# Description: (§1) Human Arginase Inhibition Assay
# (§2) The inhibitory activities of the compounds of the invention were assessed using recombinant human arginases 1 and 2. Both enzymes were biosynthesized using a prokaryotic expression system (E. coli) and purified by fast protein liquid chromatography (FPLC). The compounds were screened in 96-well plates at the total reaction volume of 100 μL. Briefly, recombinant enzymes were incubated with the tested compounds for 1 h at 37° C. in the reaction buffer (100 mM sodium phosphate buffer, 130 mM NaCl, 1 mg/mL BSA, pH 7.4) containing substrate (L-arginine hydrochloride, 10 mM for hARG1 and 20 mM for hARG2) and cofactor (200 μM MnCl2). The assay is based on the detection of urea, which is generated during the conversion of L-arginine into L-omithine catalyzed by ARG1 or ARG2 (Baggio et al. J Pharmacol. Exp. Ther. 1999, 290, 1409-1416). The colorimetrically detectable product was developed by adding a mixture of reagent A (4 mM oPA, 50 mM boric acid, 1 M sulfuric acid, 0.03% Brij-35) and reagent B (4 mM NED, 50 mM boric acid, 1 M sulfuric acid, 0.03% Brij-35) in equal proportions. The absorbance for each well was measured at 515 nm and the enzyme inhibition was calculated. The urea production in the absence of any tested compound was considered as maximal enzyme activity. The absorbance at the absence of arginase (background) was subtracted from all the values. The normalized values were analyzed using GraphPad Prism 7.0 software by plotting inhibition curves and determining the IC50 values.
# (§3) The inhibitory activity classes of the hydrochloride salts of the exemplary compounds according to the invention are presented in Table 1
# [2] = target: T2, recombinant human arginase 2 (hARG2) (Homo sapiens, UniProt P78540); test: Human arginase inhibition assay (colorimetric urea detection), arginase 2; format: biochemical; conditions: IC50 class; hydrochloride salts; 1 h at 37° C., pH 7.4, 20 mM L-arginine, 200 μM MnCl2; read-out: Activity Class (ARG II)
# T2 construct: made in house; host or cells: E. coli
# T2 sequence (P78540 23-354): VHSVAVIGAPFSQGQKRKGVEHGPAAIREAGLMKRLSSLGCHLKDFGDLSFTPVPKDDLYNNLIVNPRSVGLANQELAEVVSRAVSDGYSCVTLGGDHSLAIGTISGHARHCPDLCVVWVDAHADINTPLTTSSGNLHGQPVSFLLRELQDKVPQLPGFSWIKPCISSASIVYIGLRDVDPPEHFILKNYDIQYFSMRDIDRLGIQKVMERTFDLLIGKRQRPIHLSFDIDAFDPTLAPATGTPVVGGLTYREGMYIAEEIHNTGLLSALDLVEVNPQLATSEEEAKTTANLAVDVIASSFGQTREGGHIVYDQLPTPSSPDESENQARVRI
# Description: as §1, §2, §3
SMILES,IC50 [1] [nM],IC50 [2] [nM]
"C[C@H](N)C(=O)NC[C@@H]1CC[C@@H](CCB(O)O)C[C@]1(N)C(=O)O [Example 1, (1R,2S,5R)-1-Amino-2-(((S)-2-aminopropanamido)methyl)-5-(2-boronoethyl)cyclohexane-1-carboxylic acid dihydrochloride]",100 to 199,> 300
"N[C@@H](CO)C(=O)NC[C@@H]1CC[C@@H](CCB(O)O)C[C@]1(N)C(=O)O [Example 7, (1R,2S,5R)-1-Amino-2-(((S)-2-amino-3-hydroxypropanamido)methyl)-5-(2-boronoethyl)cyclohexane-1-carboxylic acid dihydrochloride]",100 to 199,> 300
"N[C@@H](Cc1c[nH]cn1)C(=O)NC[C@@H]1CC[C@@H](CCB(O)O)C[C@]1(N)C(=O)O [Example 8, (1R,2S,5R)-1-Amino-2-(((S)-2-amino-3-(1H-imidazol-4-yl)propanamido)methyl)-5-(2-boronoethyl)cyclohexane-1-carboxylic acid trihydrochloride]",100 to 199,> 300
"N[C@H](C(=O)NC[C@@H]1CC[C@@H](CCB(O)O)C[C@]1(N)C(=O)O)C1CCCC1 [Example 11, (1R,2S,5R)-1-Amino-2-(((S)-2-amino-2-cyclopentylacetamido)methyl)-5-(2-boronoethyl)cyclohexane-1-carboxylic acid dihydrochloride]",1 to 99,100 to 199
"N[C@@H](Cc1ccc(O)cc1)C(=O)NC[C@@H]1CC[C@@H](CCB(O)O)C[C@]1(N)C(=O)O [Example 14, (1R,2S,5R)-1-Amino-2-(((S)-2-amino-3-(4-hydroxyphenyl)propanamido)methyl)-5-(2-boronoethyl)cyclohexane-1-carboxylic acid dihydrochloride]",200 to 299,> 300
"NC(=O)C[C@H](N)C(=O)NC[C@@H]1CC[C@@H](CCB(O)O)C[C@]1(N)C(=O)O [Example 15, (1R,2S,5R)-1-Amino-5-(2-boronoethyl)-2-(((S)-2,4-diamino-4-oxobutanamido)methyl)cyclohexane-1-carboxylic acid dihydrochloride]",200 to 299,> 300
"CC(C)(O)[C@H](N)C(=O)NC[C@@H]1CC[C@@H](CCB(O)O)C[C@]1(N)C(=O)O [Example 16, (1R,2S,5R)-1-Amino-2-(((S)-2-amino-3-hydroxy-3-methylbutanamido)methyl)-5-(2-boronoethyl)cyclohexane-1-carboxylic acid dihydrochloride]",100 to 199,> 300
"N[C@@H](Cc1c[nH]c2ccccc12)C(=O)NC[C@@H]1CC[C@@H](CCB(O)O)C[C@]1(N)C(=O)O [Example 18, (1R,2S,5R)-1-Amino-2-(((S)-2-amino-3-(1H-indol-3-yl)propanamido)methyl)-5-(2-boronoethyl)cyclohexane-1-carboxylic acid dihydrochloride]",100 to 199,> 300
"C[C@@H](O)[C@H](N)C(=O)NC[C@@H]1CC[C@@H](CCB(O)O)C[C@]1(N)C(=O)O [Example 19, (1R,2S,5R)-1-Amino-2-(((2S,3R)-2-amino-3-hydroxybutanamido)methyl)-5-(2-boronoethyl)cyclohexane-1-carboxylic acid dihydrochloride]",100 to 199,> 300
"CCC[C@H](N)C(=O)NC[C@@H]1CC[C@@H](CCB(O)O)C[C@]1(N)C(=O)O [Example 20, (1R,2S,5R)-1-Amino-2-(((S)-2-aminopentanamido)methyl)-5-(2-boronoethyl)cyclohexane-1-carboxylic acid dihydrochloride]",1 to 99,> 300
"CC(C)[C@@](C)(N)C(=O)NC[C@@H]1CC[C@@H](CCB(O)O)C[C@]1(N)C(=O)O [Example 21, (1R,2S,5R)-1-Amino-2-((2-amino-2,3-dimethylbutanamido)methyl)-5-(2-boronoethyl)cyclohexane-1-carboxylic acid dihydrochloride]",200 to 299,> 300
"C[C@@H](N)C(=O)NC[C@@H]1CC[C@@H](CCB(O)O)C[C@]1(N)C(=O)O [Example 22, (1R,2S,5R)-1-Amino-2-(((R)-2-aminopropanamido)methyl)-5-(2-boronoethyl)cyclohexane-1-carboxylic acid dihydrochloride]",1 to 99,> 300
"CC(C)[C@@H](N)C(=O)NC[C@@H]1CC[C@@H](CCB(O)O)C[C@]1(N)C(=O)O [Example 23, (1R,2S,5R)-1-Amino-2-(((R)-2-amino-3-methylbutanamido)methyl)-5-(2-boronoethyl)cyclohexane-1-carboxylic acid dihydrochloride]",1 to 99,> 300
"C[C@H](N)C(=O)N(C)C[C@@H]1CC[C@@H](CCB(O)O)C[C@]1(N)C(=O)O [Example 24, (1R,2S,5R)-1-Amino-2-(((S)-2-amino-N-methylpropanamido)methyl)-5-(2-boronoethyl)cyclohexane-1-carboxylic acid dihydrochloride]",100 to 199,> 300
"CC(C)[C@H](N)C(=O)N(C)C[C@@H]1CC[C@@H](CCB(O)O)C[C@]1(N)C(=O)O [Example 25, (1R,2S,5R)-1-Amino-2-(((S)-2-amino-N,3-dimethylbutanamido)methyl)-5-(2-boronoethyl)cyclohexane-1-carboxylic acid dihydrochloride]",1 to 99,> 300
"Cn1cc(C[C@@H](N)C(=O)NC[C@@H]2CC[C@@H](CCB(O)O)C[C@]2(N)C(=O)O)c2ccccc21 [Example 26, (1R,2S,5R)-1-Amino-2-(((R)-2-amino-3-(1-methyl-1H-indol-3-yl)propanamido)methyl)-5-(2-boronoethyl)cyclohexane-1-carboxylic acid dihydrochloride]",100 to 199,> 300
"N[C@@H](CS)C(=O)NC[C@@H]1CC[C@@H](CCB(O)O)C[C@]1(N)C(=O)O [Example 27, (1R,2S,5R)-1-Amino-2-(((R)-2-amino-3-mercaptopropanamido)methyl)-5-(2-boronoethyl)cyclohexane-1-carboxylic acid dihydrochloride]",200 to 299,> 300
"NC(=O)CC[C@H](N)C(=O)NC[C@@H]1CC[C@@H](CCB(O)O)C[C@]1(N)C(=O)O [Example 28, (1R,2S,5R)-1-Amino-5-(2-boronoethyl)-2-(((S)-2,5-diamino-5-oxopentanamido)methyl)cyclohexane-1-carboxylic acid dihydrochloride]",100 to 199,> 300
"N[C@@H](CC(=O)O)C(=O)NC[C@@H]1CC[C@@H](CCB(O)O)C[C@]1(N)C(=O)O [Example 29, (1R,2S,5R)-1-Amino-2-(((S)-2-amino-3-carboxypropanamido)methyl)-5-(2-boronoethyl)cyclohexane-1-carboxylic acid dihydrochloride]",> 300,> 300
"N[C@@H](CCC(=O)O)C(=O)NC[C@@H]1CC[C@@H](CCB(O)O)C[C@]1(N)C(=O)O [Example 30, (1R,2S,5R)-1-Amino-2-(((S)-2-amino-4-carboxybutanamido)methyl)-5-(2-boronoethyl)cyclohexane-1-carboxylic acid dihydrochloride]",> 300,> 300
"CNCC(=O)NC[C@@H]1CC[C@@H](CCB(O)O)C[C@]1(N)C(=O)O [Example 31, (1R,2S,5R)-1-Amino-5-(2-boronoethyl)-2-((2-(methylamino)acetamido)methyl)cyclohexane-1-carboxylic acid dihydrochloride]",100 to 199,> 300
"COC(=O)[C@@]1(N)C[C@H](CCB(O)O)CC[C@H]1CNC(=O)[C@@H](N)C(C)C [Example 32, (2-((1R,3R,4S)-3-Amino-4-(((S)-2-amino-3-methylbutanamido)methyl)-3-(methoxycarbonyl)cyclohexyl)ethyl)boronic acid dihydrochloride]",> 300,> 300
